Patent US20200407370A1, “PEPTIDYLARGININE DEIMINASE INHIBITOR AND USE THEREOF” (Nanjing Transthera Biosciences Co., Ltd., priority 2018, published 2020)
Where two headings read alike, the source gives them in different places.

Experiments:
[1] = biological target: T1, Peptidylarginine deiminase 4 (PAD4) (Homo sapiens, UniProt Q9UM07); experiment: Assay of enzyme-inhibiting activity (PAD4, FAM-AcH4(1-5) peptide, Caliper detection); type: biochemical; details: 10 nM PAD4, 5 μM peptide, 0.1 mM Ca2+, pH 8.0
T1 construct: purchased Cayman 10500
Procedure: Experimental Example 1: Assay of Enzyme-Inhibiting Activity of Compound
Sample: The compound disclosed herein prepared according to exemplary methods.
Peptidylarginine deiminase 4 (PAD4): Cayman, Cat. No. 10500, Lot. No. 0519694;
Carboxyfluorescein-labeled peptide (Peptide FAM-AcH4 (1-5)): GL Biochem, Cat. No. 0200046, Lot. No. P161110-TL545976;
An appropriate amount of the compound to be assayed was dissolved in DMSO to 10 mM. An appropriate amount of 10 mM mother liquor of the compound to be assayed was diluted to 1.5 mM with DMSO, and the solution was then serially diluted 3-fold with DMSO to give 50× concentrations of gradient compound solutions. Finally, 10-fold dilution was carried out with reaction buffer (an aqueous solution of 100 mM HEPES (2-[4-(2-hydroxyethyl)piperazin-1-yl]ethanesulfonic acid) containing 0.01% v/v Triton, pH 8.0) to give 5× concentrations of gradient compound solutions (150 μM, 50 μM, 16.667 μM, 5.556 μM, 1.852 μM, 0.617 μM, 0.206 μM, 0.069 μM, 0.023 μM, and 0.008 μM).
1) Reaction buffer: aqueous solution of 100 mM HEPES (2-[4-(2-hydroxyethyl)piperazin-1-yl]ethanesulfonic acid) containing 0.01% v/v Triton, pH 8.0;
2) Stop solution: aqueous solution of 100 mM HEPES (2-[4-(2-hydroxyethyl)piperazin-1-yl]ethanesulfonic acid) containing 0.015% w/v Brij-35, 0.2% v/v Coating Reagent (coating solution) #3 (PE, part no. 760050) and 50 mM EDTA, pH 8.0;
3) 2.5× enzyme solution: An appropriate amount of PAD4 was diluted to 2.5× (final concentration: 10 nM) with reaction buffer;
4) 2.5× polypeptide solution: An appropriate amount of carboxyfluorescein -labeled peptide (FAM-AcH4(1-5) peptide) and CaCl2) solution was diluted to 2.5× (the final concentration of polypeptide: 5 μM, the final concentration of Ca^2+: 0.1 mM) with reaction buffer.
5 μL of 5× compound solutions or solvents with different concentrations were added to a 384-well plate, 10 μL of 2.5× enzyme solution was then added, and the plate was incubated at room temperature for 10 min. 10 μL of 2.5× polypeptide solution was then added to each well, and the plate was incubated at 28° C. for a certain period of time. 25 μL of stop solution was added to stop reaction. Caliper was used for detection. The inhibition rate was calculated according to the following formula:
Inhibition percentage=(max−transformation)/(max−min)*100.
“max” denotes DMSO control; and “min” denotes low control.

[2] = Liver microsomal stability in human; type: in vitro ADME; details: human liver microsomes, 0.5 mg protein/mL, 1 μM compound, 37° C.
Procedure: (§1) Experimental Example 2: Evaluation on Liver Microsomal Stability of the Compound Disclosed Herein in Human/Canine
(§2) An appropriate amount of the compound was precisely weighed and dissolved in DMSO to prepare a 5.0 mM stock solution. 5.0 mM stock solution was diluted to 1.0 mM with DMSO, and then diluted with water to 10 μM, serving as a compound working solution for later use (DMSO content in the reaction system: 0.1% v/v).
(§3) • (1) The liver microsomes (20 mg protein/mL) were taken from a −80° C. refrigerator, pre-incubated on a 37° C. water bath thermostatic oscillator for 3 min, and thawed for use. • (2) A mixed incubation system solution (without compounds or β-NADPH) was prepared according to the proportion of “composition of the incubation system” described above and pre-incubated on a 37° C. water bath thermostatic oscillator for 2 min. • (3) Control group (without β-NADPH): 30 μL of water and 30 μL of compound working solution (10 μM) were added to 240 μL of the mixed incubation system solution in step (2), and the mixture was vortexed for 30 s and mixed. The total volume of the mixture was 300 μL. The sample was duplicated. The reaction solution was placed on a 37° C. water bath thermostatic oscillator for incubation, and timing was started. Samples were collected at 0 min and 60 min. • (4) Sample group: 70 μL of β-NADPH solution (10 mM) and 70 μL of compound working solution (10 μM) were added to 560 μL of the mixed incubation system solution in step (2), and the total volume of the mixture was 700 μL. The mixture was vortexed for 30 s and mixed. The sample was duplicated. The reaction solution was placed on a 37° C. water bath thermostatic oscillator for incubation, and timing was started. Samples were collected at 0 min, 5 min, 10 min, 20 min, 30 min and 60 min after timing. • (5) The reaction solution was vortexed for 3 min, and centrifuged at 12,000 rpm for 5 min. • (6) 50 μL of the supernatant was added to 150 μL of water, and the resulting solution was vortexed and mixed before LC/MS/MS analysis.
(§4) The half-life (t1/2) and clearance (Cl) were calculated using the following first-order kinetic formula:
(§5) Vd=1/protein content in liver microsomes
(§6) Note: k denotes the slope of the logarithm of the remaining amount of a compound vs. time, Vd denotes apparent volume of distribution, C0 denotes drug concentration at 0 h, Ct denotes drug concentration at time t, t denotes time, e denotes natural number, and Clint denotes intrinsic clearance.

[3] = Liver microsomal stability in canine; type: in vitro ADME; details: dog; canine liver microsomes, 0.5 mg protein/mL, 1 μM compound, 37° C.
Procedure: as §1, §2, §3, §4, §5, §6

[4] = Pharmacokinetics (PK) of the compound in rats; type: in vivo; details: rat, plasma, SD rats
Procedure: Experimental Example 3: Pharmacokinetics (PK) of the Compound in Rats
The test compound was dissolved in a mixture of 5% v/v DMSO+20% v/v (30% v/v solutol (polyethylene glycol-15 hydroxystearate purchased from BASF, batch no. 84773247G0))+75% v/v brine to prepare a solution, which was then administered to SD rats by oral gavage at a dose of 5.0 mg/kg. Blood samples were collected at 15 min, 30 min, 1 h, 2 h, 4 h, 6 h, 8 h and 24 h.
The test compound was dissolved in a mixture of 5% v/v DMSO+20% v/v (30% v/v solutol)+75% v/v brine to prepare a solution, which was administered to SD rats by intravenous bolus at a dose of 1 mg/kg. Blood samples were collected at 5 min, 15 min, 30 min, 1 h, 2 h, 4 h, 6 h, 8 h and 24 h.
The animals were fixed, with tails warmed in a water bath 10 min before each sampling time point. About 100 μL of blood was collected via the tail vein, and the blood samples were collected in anticoagulation tubes containing EDTA-K2. The blood samples were centrifuged at 8,000 rpm for 6 min at 4° C. to give plasma samples within 30 min after collection. The plasma samples were stored in a refrigerator at −80° C. before test.
The sample was taken out from the −80° C. refrigerator, and vortexed for 5 min after naturally thawed at room temperature. 20 μL of plasma sample was pipetted into a 1.5 mL centrifuge tube, and 200 μL of 100 ng/mL internal standard working solution (a solution of tolbutamide in methanol) was added. The resulting mixture was mixed, vortexed for 5 min, and then centrifuged at 12,000 rpm for 5 min. 50 μL of the supernatant was pipetted into a 96-well plate with 150 μL of water per well, and the plate was vortexed for 5 min before LC-MS/MS analysis.
The concentration was calculated by Analyst 1.6.3 from AB Sciex. Parameters such as mean, standard deviation and coefficient of variation (excluding those output directly by Analyst 1.6.3) were calculated by Microsoft Excel. PK parameters were calculated by Pharsight Phoenix 6.1 software NCA (Tmax was in median).

T1 sequence (Q9UM07 whole entry): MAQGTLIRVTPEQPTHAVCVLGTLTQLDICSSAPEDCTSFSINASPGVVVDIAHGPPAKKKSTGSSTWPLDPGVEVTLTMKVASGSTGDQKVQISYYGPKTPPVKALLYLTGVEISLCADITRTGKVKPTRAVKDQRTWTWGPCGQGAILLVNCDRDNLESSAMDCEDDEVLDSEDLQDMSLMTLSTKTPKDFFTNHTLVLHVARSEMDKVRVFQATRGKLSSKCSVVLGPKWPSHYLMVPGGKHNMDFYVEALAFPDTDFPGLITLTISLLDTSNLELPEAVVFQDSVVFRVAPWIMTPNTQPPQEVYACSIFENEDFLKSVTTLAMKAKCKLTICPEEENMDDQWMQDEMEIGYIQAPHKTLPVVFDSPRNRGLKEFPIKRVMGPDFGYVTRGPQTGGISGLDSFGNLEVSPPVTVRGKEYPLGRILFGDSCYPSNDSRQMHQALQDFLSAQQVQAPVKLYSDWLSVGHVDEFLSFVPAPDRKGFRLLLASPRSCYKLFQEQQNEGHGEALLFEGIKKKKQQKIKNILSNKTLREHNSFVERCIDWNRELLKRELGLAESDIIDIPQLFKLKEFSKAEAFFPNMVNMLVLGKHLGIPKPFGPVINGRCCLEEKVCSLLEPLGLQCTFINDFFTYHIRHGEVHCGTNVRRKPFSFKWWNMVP

IC50 [1]	SMILES	half-life at 1 μM [2]	microsomal CLint at 1 μM [2]	half-life at 1 μM [3]	microsomal CLint at 1 μM [3]	bioavailability ([4]; IV 1 mg/kg, PO 5 mg/kg, n = 3, read-out: F (absolute bioavailability))	AUC(0-t) ([4]; IV 1 mg/kg, n = 3, read-out: AUClast iv (area under concentration-time curve 0-24 h))	clearance ([4]; IV 1 mg/kg, n = 3, read-out: Cl_obs iv (clearance) (converted))	Vd ([4]; IV 1 mg/kg, n = 3, read-out: Vz_obs iv (apparent volume of distribution))	half-life ([4]; IV 1 mg/kg, n = 3, read-out: tz1/2 iv (terminal half-life) (converted))	Tmax ([4]; PO 5 mg/kg, n = 3, median, read-out: Tmax po (time to maximum plasma concentration))	AUC(0-t) ([4]; PO 5 mg/kg, n = 3, read-out: AUClast po (area under concentration-time curve 0-24 h))	half-life ([4]; PO 5 mg/kg, n = 3, read-out: tz1/2 po (terminal half-life) (converted))
0.054 µM	COc1cc(C(=O)N2CCC[C@@H](N)C2)cc2nc(-c3cc4ccoc4n3CC3CC3)n(C)c12 [Compound 24, (R)-(3-aminopiperidin-1-yl)(2-(6-(cyclopropylmethyl)-6H-furo[2,3-b]pyrrol-5-yl)-7-methoxy-1-methyl-1H-benzo[d]imidazol-5-yl)methanone]	–	–	–	–	–	–	–	–	–	–	–	–
0.35 µM	CCn1c(-c2nc3cc(C(=O)N4CCC[C@@H](N)C4)cc(OC)c3n2C)cc2ccoc21 [Compound 4, (R)-(3-aminopiperidin-1-yl)(2-(6-ethyl-6H-furo[2,3-b]pyrrol-5-yl)-7-methoxy-1-methyl-1H-benzo[d]imidazol-5-yl)methanone]	11.6 h	2 µL/min/mg	5.5 h	–	–	–	–	–	–	–	–	–

SMILES	IC50 [1]	half-life at 1 μM [2]	microsomal CLint at 1 μM [2]	half-life at 1 μM [3]	microsomal CLint at 1 μM [3]	bioavailability ([4]; IV 1 mg/kg, PO 5 mg/kg, n = 3, read-out: F (absolute bioavailability))	AUC(0-t) ([4]; IV 1 mg/kg, n = 3, read-out: AUClast iv (area under concentration-time curve 0-24 h))	clearance ([4]; IV 1 mg/kg, n = 3, read-out: Cl_obs iv (clearance) (converted))	Vd ([4]; IV 1 mg/kg, n = 3, read-out: Vz_obs iv (apparent volume of distribution))	half-life ([4]; IV 1 mg/kg, n = 3, read-out: tz1/2 iv (terminal half-life) (converted))	Tmax ([4]; PO 5 mg/kg, n = 3, median, read-out: Tmax po (time to maximum plasma concentration))	AUC(0-t) ([4]; PO 5 mg/kg, n = 3, read-out: AUClast po (area under concentration-time curve 0-24 h))	half-life ([4]; PO 5 mg/kg, n = 3, read-out: tz1/2 po (terminal half-life) (converted))
CCn1c(-c2nc3cc(C(=O)N4CCC[C@@H](N)C4)cc(OC)c3n2C)cc2cccnc21 [Compound GSK199, reference compound]	0.14 µM	4.45 h	5.2 µL/min/mg	12.8 h	1.8 µL/min/mg	33.1%	0.33 µg·h/mL	2.89 L/h/kg	6.75 L/kg	1.63 h	4 h	0.496 µg·h/mL	2.23 h
